Experimental data as given in publication PMC6212536, “Allosteric Site Inhibitor Disrupting Auto-Processing of Malarial Cysteine Proteases” (Scientific Reports, 2018).

Columns and labels:
[1] = molecular target: T1, pro-falcipain-2 (pro-FP2) (Plasmodium falciparum, UniProt Q8I6U4); test: SPR, immobilized pro-enzyme; auto-processing also blocked; format: binding
T1 construct: gene FP2A

[2] = molecular target: pro-falcipain-3 (pro-FP3) (Plasmodium falciparum, UniProt Q8IIL0); test: as above; format: binding
Chain of pro-falcipain-3 (pro-FP3) (Q8IIL0 57-492): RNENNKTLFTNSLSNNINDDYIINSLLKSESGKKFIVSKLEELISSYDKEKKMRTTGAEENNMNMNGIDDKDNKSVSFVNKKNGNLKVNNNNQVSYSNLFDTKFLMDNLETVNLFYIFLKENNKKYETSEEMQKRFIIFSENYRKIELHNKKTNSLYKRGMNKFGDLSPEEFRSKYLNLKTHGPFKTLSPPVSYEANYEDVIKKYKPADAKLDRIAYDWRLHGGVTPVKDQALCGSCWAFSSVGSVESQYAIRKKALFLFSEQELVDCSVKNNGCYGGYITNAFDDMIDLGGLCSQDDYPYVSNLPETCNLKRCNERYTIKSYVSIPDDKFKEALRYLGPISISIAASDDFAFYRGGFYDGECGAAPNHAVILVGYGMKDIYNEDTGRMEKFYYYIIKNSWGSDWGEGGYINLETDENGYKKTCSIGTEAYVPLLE

T1 sequence (Q8I6U4 208-484): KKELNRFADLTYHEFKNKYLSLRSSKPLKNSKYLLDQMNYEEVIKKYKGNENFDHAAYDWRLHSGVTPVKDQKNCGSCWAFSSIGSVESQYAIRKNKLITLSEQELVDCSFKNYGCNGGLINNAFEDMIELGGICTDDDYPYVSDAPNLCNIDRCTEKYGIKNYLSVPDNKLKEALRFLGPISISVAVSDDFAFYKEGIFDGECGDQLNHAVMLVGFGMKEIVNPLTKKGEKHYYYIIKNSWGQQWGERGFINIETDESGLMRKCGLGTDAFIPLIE

SMILES	Kd [1]	Kd [2]
O=C(CC1(NC(=O)c2cnccn2)CCCCC1)NNC(=O)c1cnccn1 [NA-03]	1.67 ± 0.01 nM	2 ± 0.04 nM
O=C(CC1(CNC(=O)c2cnccn2)CCCCC1)NNC(=O)c1cnccn1 [NA-01]	1.72 ± 0.03 nM	5.14 ± 0.07 nM
